For the experiment, the system named is HL60 cells. As to the kind of experiment: Inhibition effect of HL60 cell line growth (MTT, 3 days). The experiment is classed as cell-based. Conditions: Homo sapiens, HL-60, 72 h, read-out: HL60 Growth Inhibition. As to the method: 1. Inhibition Effect of HL60 Cell Line Growth
A 10% FBS-contained RPMI1640 badge was used for culturing HL60 cells. The test substance was prepared by dissolving in DMSO to a concentration of 10 mg/ml, and continuously diluting with PBS to a final concentration of 100 μg/ml to 0.03 μg/ml. In a 96-well microplate, 180 μl of the badge containing 6.0×10^4 cells/ml of cells and 20 μl of continuously diluted test substance were added. The mixture was cultured at 37° C. with 5% CO2 atmosphere for 3 days. After completion of the cultivation, 50 μl of a solution of 1.25 mg/ml MTT (3-(4,5-dimethylthiazol-2-yl)-2,5-diphenyltetrazolium bromide) dissolved in PBS was added to all wells, and the resulting mixture was reacted at 37° C. for 3 hours. Thus formed formazan crystals were dissolved in 150 μl of DMSO, and an absorbance was measured at 570 nm.

[1] abbreviates: HL60 cells, 3 days culture, MTT, absorbance 570 nm.

IC50 data for 28 compounds are collected here from patent publication US8053439B2, “Benzophenone derivatives useful for inhibiting formation of microtubule” (Chong Kun Dang Pharmaceutical Corp., priority 2006, dated 2011).

Like-named read-outs stand apart in the source and are kept apart here.

Take `COc1cc(C(=O)c2ccc(-c3ccco3)cc2-n2cncn2)cc(OC)c1OC` [Compound 443, (4-(furan-2-yl)-2-(1H-1,2,4-triazol-1-yl)phenyl)(3,4,5-trimethoxyphenyl)methanone]: under setting [1], the IC50 was 0.08 µM.
`O=C(c1ccc(-c2ccco2)cc1-n1cncn1)c1c(F)c(F)c(F)c(F)c1F` [Compound 446, (4-(furan-2-yl)-2-(1H-1,2,4,-triazol-1-yl)phenyl)(pentafluorophenyl)methanone]: under setting [1], the IC50 came out at 0.17 µM.
As to `COc1cc(C(=O)c2ccc(-c3cncnc3)cc2-n2cncn2)cc(OC)c1OC` [Compound 455, (4-(pyrimidin-5-yl)-2-(1H-1,2,4,-triazol-1-yl)phenyl)(3,4,5-trimethoxyphenyl)methanone], the IC50 under setting [1] was 3.1 µM.
For the compound `COc1cc(C(=O)c2ccc(-c3ccccc3O)cc2F)cc(OC)c1OC` [Compound 457, (2′-hydroxy-3-(fluoro)biphenyl-4-yl)(3,4,5-trimethoxyphenyl)methanone], the IC50 under setting [1] stood at 11.6 µM.
For `COc1cc(C(=O)c2ccc(-c3ccsc3)cc2F)cc(OC)c1OC` [Compound 458, (2-fluoro-4-(thiophen-3-yl)phenyl)(3,4,5-trimethoxyphenyl)methanone], the IC50 under setting [1] came to 3.18 µM.
As for `COc1cc(C(=O)c2ccc(-c3ccsc3)cc2-n2cncn2)cc(OC)c1OC` [Compound 462, (4-(thiophen-3-yl)-2-(1H-1,2,4,-triazol-1-yl)phenyl)(3,4,5-trimethoxyphenyl)methanone], under setting [1], the IC50 was found to be 0.033 µM.
For the compound `COc1cc(C(=O)c2ccc(-c3nccs3)cc2-n2cncn2)cc(OC)c1OC` [Compound 464, (4-(thiazol-2-yl)-2-(1H-1,2,4-triazol-1-yl)phenyl)(3,4,5-trimethoxyphenyl)methanone], under setting [1], the IC50 stood at 0.09 µM.
On the same count and under the same terms, in the case of `COc1cc(C(=O)c2ccc(-c3cccc(NS(C)(=O)=O)c3)cc2-n2cncn2)cc(OC)c1OC` [Compound 476, N-(3′-[1,2,4]triazol-1-yl-4′-(3,4,5-trimethoxybenzoyl)biphenyl-3-yl)methanesulfonamide] it was 0.025 µM; in that of `CCS(=O)(=O)c1cccc(-c2ccc(C(=O)c3cc(OC)c(OC)c(OC)c3)c(-n3cncn3)c2)c1` [Compound 479, (3′-ethanesulfonyl-3-[1,2,4]triazol-1-yl-biphenyl-4-yl)(3,4,5-trimethoxyphenyl)methanone], 0.025 µM; in that of `COc1cc(C(=O)c2ccc(-c3nccs3)cc2OS(C)(=O)=O)cc(OC)c1OC` [Compound 484, methanesulfonic acid 5-(thiazol-2-yl)-2-(3,4,5-trimethoxybenzoyl)phenyl ester], 4.24 µM.
`COc1cc(C(=O)c2cc(-c3cccc(NS(C)(=O)=O)c3)ccc2F)cc(OC)c1OC` [Compound 486, N-[4′-fluoro-3′-(3,4,5-trimethoxybenzoyl)-biphenyl-3-yl]-methanesulfonamide]: under setting [1], the IC50 is 0.16 µM.
Regarding `COc1cc(C(=O)c2ccc(-c3cccc(NS(C)(=O)=O)c3)cc2N)cc(OC)c1OC` [Compound 494, N-(3′-amino-4′-(3,4,5-trimethoxybenzoyl)-biphenyl-3-yl)methanesulfonamide], the IC50 under setting [1] came out at 0.12 µM.
As to `COc1cc(C(=O)c2ccc(-c3cccc(C#N)c3)cc2-n2cncn2)cc(OC)c1OC` [Compound 506, 3′-[1,2,4]triazol-1-yl-4′-(3,4,5-trimethoxybenzoyl)-biphenyl-3-carbonitrile], the IC50 under setting [1] was 0.16 µM.
With `COc1cc(C(=O)c2ccc(-c3cccnc3)cc2-n2cncn2)cc(OC)c1OC` [Compound 511, (4-pyridin-3-yl-2-[1,2,4]thiazol-1-yl-phenyl)(3,4,5-trimethoxyphenyl)methanone], the IC50 came to 0.1 µM.
As to `Nc1nc(-c2ccc(C(=O)c3ccccc3)c(-n3cncn3)c2)cs1` [Compound 519, (4-(2-aminothiazol-4-yl)-2-(1H-1,24-triazol-1-yl)phenyl)(phenyl)methanone], the IC50 under setting [1] was 25 µM.
With `COc1cc(C(=O)c2ccc(-c3cccc(N)c3)cc2-n2cncn2)cc(OC)c1OC` [Compound 525, (3′-amino-3-(1H-1,2,4-triazol-1-yl)biphenyl-4-yl)(3,4,5-trimethoxyphenyl)methanone], the IC50 under setting [1] came out at 0.09 µM.
On to `COc1cc(C(=O)c2ccc(-c3c[nH]c(NC(C)=O)n3)cc2-n2cncn2)cc(OC)c1OC` [Compound 531, N-(4-(3-(1H-1,2,4-triazol-1-yl)-4-(3,4,5-trimethoxybenzoyl)phenyl)-1H-imidazol-2-yl)acetamide], for which the IC50 under setting [1] is 0.33 µM.
`COc1cc(C(=O)c2ccc(-c3cncs3)cc2-n2cncn2)cc(OC)c1OC` [Compound 534, (4-(thiazol-5-yl)-2-(1H-1,2,4-triazol-1-yl)phenyl)(3,4,5-trimethoxyphenyl)methanone]: the IC50 under setting [1] stood at 0.06 µM.
Still for that read-out and setting: in the case of `COc1cc(C(=O)c2ccc(-c3nccs3)cc2-n2cncn2)cc(OC)c1OC(F)F` [Compound 538, (4-(difluoromethoxy)-3,5-dimethoxyphenyl)(4-(thiazol-2-yl)-2-(1H-1,2,4-triazol-1-yl)phenyl)methanone] it was 0.28 µM.
Consider `COc1cc(C(=O)c2ccc(-c3csc(N)n3)cc2-n2cncn2)cc(OC)c1OC(F)F` [Compound 547, (4-(2-aminothiazol-4-yl)-2-(1H-1,2,4-triazol-1-yl)phenyl)(4-(difluoromethoxy)-3,5-dimethoxyphenyl)methanone], for which the IC50 under setting [1] was found to be 0.03 µM.
Take `COc1cc(C(=O)c2ccc(-c3cccc(S(N)(=O)=O)c3)cc2-n2cncn2)cc(OC)c1OC` [Compound 550]: under setting [1], the IC50 is 0.02 µM.
On the same count and under the same terms, then `COc1cc(C(=O)c2ccc(-c3nc(CO)cs3)cc2-n2cncn2)cc(OC)c1OC` [Compound 554, ((4-(4-hydroxymethyl)thiazol-2-yl)-2-(1H-1,2,4-triazol-1-yl)phenyl)(3,4,5-trimethoxyphenyl)methanone], with 0.09 µM; and `COc1cc(C(=O)c2ccc(-c3csc(NC(C)=O)n3)cc2-n2cncn2)cc(OC)c1OC` [Compound 560, N-(4-(3-(1H-1,2,4-triazol-1-yl)-4-(3,4,5-trimethoxybenzoyl)phenyl)thiazol-2-yl)acetamide], with 0.09 µM.
`COC(=O)Nc1nc(-c2ccc(C(=O)c3cc(OC)c(OC)c(OC)c3)c(-n3cncn3)c2)cs1` [Compound 561, methyl 4-(3-(1H-1,2,4-triazol-1-yl)-4-(3,4,5-trimethoxybenzoyl)phenyl)thiazol-2-yl carbamate]: under setting [1], the IC50 was found to be 0.32 µM.
For the compound `COc1cc(C(=O)c2ccc(-c3cscn3)cc2-n2cncn2)cc(OC)c1OC` [Compound 562, (4-(thiazol-4-yl)-2-(1H-1,2,4-triazol-1-yl)phenyl)(3,4,5-trimethoxyphenyl)methanone], the IC50 was determined as 0.08 µM.
Take `COc1cc(C(=O)c2ccc(-c3csc(C(C)(C)O)n3)cc2-n2cncn2)cc(OC)c1OC` [Compound 563, (4-(2-(2-hydroxypropan-2-yl)thiazol-4-yl)-2-(1H-1,2,4-triazol-1-yl)phenyl)(3,4,5-trimethoxyphenyl)methanone]: the IC50 under setting [1] turned out to be 0.25 µM.
For the compound `COc1cc(C(=O)c2ccc(-c3csc(CO)n3)cc2-n2cncn2)cc(OC)c1OC` [Compound 564, (4-(2-(hydroxymethyl)thiazol-4-yl)-2-(1H-1,2,4-triazol-1-yl)phenyl)(3,4,5-trimethoxyphenyl)methanone], the IC50 under setting [1] came to 0.09 µM.
As to `COc1cc(C(=O)c2cccc(-c3ccsc3)c2)cc(OC)c1OC` [Compound 568, (3-(thiophen-3-yl)phenyl)(3,4,5-trimethoxyphenyl)methanone], the IC50 under setting [1] amounted to 0.36 µM.
